Experiment: dynamic vapor sorption (DVS) scan of crystalline forms
Assay type: physicochemical
Conditions: up to 95% relative humidity
From the text: FIG. 4 depicts a dynamic vapor sorption (DVS) scan for crystalline Form I of Compound 7 of the invention (VTI dynamic vapor sorption analyzer).
FIG. 8 depicts a dynamic vapor sorption (DVS) scan for crystalline Form I Compound 9 of the invention (VTI dynamic vapor sorption analyzer).

**Q.** With COc1cccc(C(=O)Nc2ccc(OCCN3CCOCC3)c(-c3ccnn3C)c2)c1 [Compound 7 Form I, 4-(2-(4-(3-methoxybenzamido)-2-(1-methyl-1H-pyrazol-5-yl)phenoxy)ethyl)morpholin-4-ium chloride] as the molecule, how does the DVS hygroscopicity read?
**A.** FIG. 4: Non-hygroscopic;

Source: US9199940B2, “Crystalline forms and processes for the preparation of phenyl-pyrazoles useful as modulators of the 5-HT2A serotonin receptor” (Arena Pharmaceuticals, Inc., priority 2006, dated 2015)
